Experimental data from patent US9174969B2, “Indoline scaffold SHP-2 inhibitors and cancer treatment method” (UNIVERSITY OF SOUTH FLORIDA, priority 2008, dated 2015).

Target: Shp2 (Homo sapiens (Human), UniProt Q06124)
Assay: in vitro phosphotyrosine phosphatase activity (DiFMUP) assay
Type: biochemical
Settings: mean ± spread over n tests
Experimental: All reagents were purchased from commercial suppliers and used without further purification. Melting points were determined using a Barnstead international melting point apparatus and remain uncorrected. ^1H NMR spectra were recorded on a Varian Mercury 400 MHz spectrometer with CDCl3 or DMSO-d6 as the solvent. ^13C NMR spectra are recorded at 100 MHz. All coupling constants are measured in Hertz (Hz) and the chemical shifts (δH and δC) are quoted in parts per million (ppm) relative to TMS (δ0), which was used as the internal standard. High resolution mass spectroscopy was carried out on an Agilent 6210 LC/MS (ESI-TOF). Microwave reactions were performed in CEM 908005 model and Biotage initiator 8 machines. HPLC analysis was performed using a JASCO HPLC system equipped with a PU-2089 Plus quaternary gradient pump and a UV-2075 Plus UV-VIS detector, using an Alitech Kromasil C-18 column (150×4.6 mm, 5 μm). Thin layer chromatography was performed using silica gel 60 F254 plates (Fisher), with observation under UV when necessary. Anhydrous solvents (acetonitrile, dimethyl formamide, ethanol, isopropanol, methanol and tetrahydrofuran) were used as purchased from Aldrich. HPLC grade solvents (methanol, acetonitrile and water) were purchased from Burdick and Jackson for HPLC and mass analysis.

Shp2, sequence (Q06124 whole entry): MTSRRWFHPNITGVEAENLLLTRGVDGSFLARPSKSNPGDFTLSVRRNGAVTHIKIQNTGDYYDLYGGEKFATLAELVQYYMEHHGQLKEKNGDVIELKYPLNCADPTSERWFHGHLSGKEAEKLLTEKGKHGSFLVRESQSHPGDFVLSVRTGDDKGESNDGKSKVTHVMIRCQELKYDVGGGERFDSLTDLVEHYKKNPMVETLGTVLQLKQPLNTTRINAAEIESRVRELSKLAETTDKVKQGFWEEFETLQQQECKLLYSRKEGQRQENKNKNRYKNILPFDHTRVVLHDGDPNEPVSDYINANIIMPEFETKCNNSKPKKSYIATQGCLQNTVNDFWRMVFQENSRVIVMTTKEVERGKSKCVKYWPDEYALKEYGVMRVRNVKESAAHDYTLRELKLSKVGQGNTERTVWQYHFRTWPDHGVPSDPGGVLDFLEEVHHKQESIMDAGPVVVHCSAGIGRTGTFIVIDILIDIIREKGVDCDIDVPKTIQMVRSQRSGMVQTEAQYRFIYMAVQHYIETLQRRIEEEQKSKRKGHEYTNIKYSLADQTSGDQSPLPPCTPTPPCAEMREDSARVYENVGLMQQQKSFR

SMILES	IC50 [µM]
COC(=O)c1ccccc1NC(=O)N1CCc2cc(S(=O)(=O)N3CCN(c4cccc(Cl)c4)CC3)ccc21 [JHE-02-015A, Methyl 2-(5-(4-(3-chlorophenyl)piperazin-1-ylsulfonyl)indoline-1-carboxamido)benzoate]	14.3 ± 4.1
O=C(O)CCNC(=O)N1CCc2cc(S(=O)(=O)N3CCN(c4cccc(Cl)c4)CC3)ccc21 [JHE-02-017A, 3-(5-(4-(3-Chlorophenyl)piperazin-1-ylsulfonyl)indoline-1-carboxamido)propanoic acid]	4.8 ± 3.3
CC(NC(=O)N1CCc2cc(S(=O)(=O)N3CCN(c4cccc(Cl)c4)CC3)ccc21)C(=O)O (centres unmarked) [JHE-02-017B, 2-(5-(4-(3-Chlorophenyl)piperazin-1-ylsulfonyl)indoline-1-carboxamido)propanoic acid]	6.4 ± 0.5
CC(C)C(NC(=O)N1CCc2cc(S(=O)(=O)N3CCN(c4cccc(Cl)c4)CC3)ccc21)C(=O)O (centres unmarked) [JHE-02-017C, 2-(5-(4-(3-Chlorophenyl)piperazin-1-ylsulfonyl)indoline-1-carboxamido)-3-methylbutanoic acid]	4.4 ± 1.9
CC(C)CC(NC(=O)N1CCc2cc(S(=O)(=O)N3CCN(c4cccc(Cl)c4)CC3)ccc21)C(=O)O (centres unmarked) [JHE-02-019A, 2-(5-(4-(3-Chlorophenyl)piperazin-1-ylsulfonyl)indoline-1-carboxamido)-4-methylpentanoic acid]	4.5 ± 3.5
O=C(O)C(Cc1ccccc1)NC(=O)N1CCc2cc(S(=O)(=O)N3CCN(c4cccc(Cl)c4)CC3)ccc21 (centres unmarked) [JHE-02-019B, 2-(5-(4-(3-Chlorophenyl)piperazin-1-ylsulfonyl)indoline-1-carboxamido)-3-phenylpropanoic acid]	5.4 ± 2.7
O=C(O)c1ccccc1NC(=O)N1CCc2cc(S(=O)(=O)N3CCN(c4cccc(Cl)c4)CC3)ccc21 [JHE-02-020A, 2-(5-(4-(3-Chlorophenyl)piperazin-1-ylsulfonyl)indoline-1-carboxamido)benzoic acid]	8.3 ± 5.6
O=C(O)c1cccc(NC(=O)N2CCc3cc(S(=O)(=O)N4CCN(c5cccc(Cl)c5)CC4)ccc32)c1 [JHE-02-020B, 3-(5-(4-(3-Chlorophenyl)piperazin-1-ylsulfonyl)indoline-1-carboxamido)benzoic acid]	3 ± 0.8
CCC(C)C(NC(=O)N1CCc2cc(S(=O)(=O)N3CCN(c4cccc(Cl)c4)CC3)ccc21)C(=O)OC (centres unmarked) [JHE-02-029A, Methyl 2-(5-(4-(3-chlorophenyl)piperazin-1-ylsulfonyl)indoline-1-carboxamido)-3-methylpentanoate]	12.7 ± 0.7
O=C(Nc1cccc(Cl)c1)N1CCc2cc(S(=O)(=O)N3CCN(c4cccc(Cl)c4)CC3)ccc21 [JHE-02-032A, N-(3-Chlorophenyl)-5-(4-(3-chlorophenyl)piperazin-1-ylsulfonyl)indoline-1-carboxamide]	8.3 ± 3.4
COc1cccc(NC(=O)N2CCc3cc(S(=O)(=O)N4CCN(c5cccc(Cl)c5)CC4)ccc32)c1 [JHE-02-032B, 5-(4-(3-Chlorophenyl)piperazin-1-ylsulfonyl)-N-(3-methoxyphenyl)indoline-1-carboxamide]	9.9 ± 3.5
CCCC(=O)N1CCc2cc(S(=O)(=O)N3CCN(c4cccc(Cl)c4)CC3)ccc21 [JHE-02-033A, 1-(5-(4-(3-Chlorophenyl)piperazin-1-ylsulfonyl)indolin-1-yl)butan-1-one]	7.8 ± 2.1
CC(C)CC(=O)N1CCc2cc(S(=O)(=O)N3CCN(c4cccc(Cl)c4)CC3)ccc21 [JHE-02-033B, 1-(5-(4-(3-Chlorophenyl)piperazin-1-ylsulfonyl)indolin-1-yl)-3-methylbutan-1-one]	20.7 ± 10.8
COc1cccc(C(=O)N2CCc3cc(S(=O)(=O)N4CCN(c5cccc(Cl)c5)CC4)ccc32)c1 [JHE-02-035A, (5-(4-(3-chlorophenyl)piperazin-1-ylsulfonyl)indolin-1-yl)(3-methoxyphenyl)methanone]	8.1 ± 0.8
CCC(C)C(NC(=O)N1CCc2cc(S(=O)(=O)N3CCN(c4cccc(Cl)c4)CC3)ccc21)C(=O)O (centres unmarked) [JHE-02-038, 2-(5-(4-(3-Chlorophenyl)piperazin-1-ylsulfonyl)indoline-1-carboxamido)-3-methylpentanoic acid]	15.5 ± 7.5
O=C(O)CC[C@H](NC(=O)N1CCc2cc(S(=O)(=O)N3CCN(c4cccc(Cl)c4)CC3)ccc21)C(=O)O [JHE-02-052, (S)-2-(5-(4-(3-Chlorophenyl)piperazin-1-ylsulfonyl)indoline-1-carboxamido)pentanedioic acid]	37.6 ± 13.8
O=C(Cc1ccc(Cl)cc1)N1CCc2cc(S(=O)(=O)N3CCN(c4cccc(Cl)c4)CC3)ccc21 [JHE-02-063B, 2-(4-Chlorophenyl)-1-(5-(4-(3-chlorophenyl)piperazin-1-ylsulfonyl)indolin-1-yl)ethanone]	8 ± 1.9
O=C(Nc1ccc(Cl)cc1)N1CCc2cc(S(=O)(=O)N3CCN(c4cccc(Cl)c4)CC3)ccc21 [JHE-02-065A, N-(4-Chlorophenyl)-5-(4-(3-chlorophenyl)piperazin-1-ylsulfonyl)indoline-1-carboxamide]	19.1 ± 5.1

SMILES	IC50 [µM]
O=C(Nc1ccccc1Cl)N1CCc2cc(S(=O)(=O)N3CCN(c4cccc(Cl)c4)CC3)ccc21 [JHE-02-065B, N-(2-Chlorophenyl)-5-(4-(3-chlorophenyl)piperazin-1-ylsulfonyl)indoline-1-carboxamide]	3.2 ± 0.5
O=C(O)C(O)CC(=O)N1CCc2cc(S(=O)(=O)N3CCN(c4cccc(Cl)c4)CC3)ccc21 (centres unmarked) [JHE-02-067]	1.3 ± 0.5
O=C(Nc1ccc(Cl)c(Cl)c1)N1CCc2cc(S(=O)(=O)N3CCN(c4cccc(Cl)c4)CC3)ccc21 [JHE-02-068A, 5-(4-(3-Chlorophenyl)piperazin-1-ylsulfonyl)-N-(3,4-dichlorophenyl)indoline-1-carboxamide]	5.7 ± 2.5
CC(C)c1ccc(NC(=O)N2CCc3cc(S(=O)(=O)N4CCN(c5cccc(Cl)c5)CC4)ccc32)cc1 [JHE-02-068B, 5-(4-(3-Chlorophenyl)piperazin-1-ylsulfonyl)-N-(4-isopropylphenyl)indoline-1-carboxamide]	4.1 ± 1
CC1Cc2cc(S(=O)(=O)N3CCN(c4cccc(Cl)c4)CC3)ccc2N1C(=O)C(F)(F)F (centres unmarked) [JHE-02-117, 1-(5-(4-(3-chlorophenyl)piperazin-1-ylsulfonyl)-2-methylindolin-1-yl)-2,2,2-trifluoroethanone]	47 ± 17.7
CC1Cc2cc(S(=O)(=O)N3CCN(c4cccc(Cl)c4)CC3)ccc2N1C(=O)CCC(=O)O (centres unmarked) [JHE-02-119, 4-(5-(4-(3-Chlorophenyl)piperazin-1-ylsulfonyl)-2-methylindolin-1-yl)-4-oxobutanoic acid]	2.5 ± 0.5
O=C(O)CCC(=O)N1CCc2cc(S(=O)(=O)N3CCN(c4ccc(F)cc4)CC3)ccc21 [XW2-011B, 4-(5-(4-(4-Fluorophenyl)piperazin-1-ylsulfonyl)indolin-1-yl)-4-oxobutanoic acid]	31.9 ± 10
O=C(O)CCC(=O)N1CCc2cc(S(=O)(=O)N3CCN(c4cccc(C(F)(F)F)c4)CC3)ccc21 [XW2-031B, 4-oxo-4-(5-(4-(3-(trifluoromethyl)phenyl)piperazin-1-ylsulfonyl)indolin-1-yl)butanoic acid]	11.3 ± 3.1
O=C(O)CCC(=O)N1CCc2cc(S(=O)(=O)N3CCN(c4ccc(Cl)c(Cl)c4)CC3)ccc21 [XW2-036, 4-(5-(4-(3,4-Dichlorophenyl)piperazin-1-ylsulfonyl)indolin-1-yl)-4-oxobutanoic acid]	4.6 ± 2.4
O=C(O)CCC(=O)N1CCc2cc(S(=O)(=O)N3CCN(c4ccccc4)CC3)ccc21 [XW2-038A, 4-oxo-4-(5-(4-Phenylpiperazin-1-ylsulfonyl)indolin-1-yl)butanoic acid]	14.8 ± 7.3
O=C(O)CCC(=O)N1CCc2cc(S(=O)(=O)N3CCN(c4ccccc4F)CC3)ccc21 [XW2-038D, 4-(5-(4-(2-Fluorophenyl)piperazin-1-ylsulfonyl)indolin-1-yl)-4-oxobutanoic acid]	34.6 ± 12.6
COc1ccc(N2CCN(S(=O)(=O)c3ccc4c(c3)CCN4C(=O)CCC(=O)O)CC2)cc1 [XW2-038E, 4-(5-(4-(4-Methoxyphenyl)piperazin-1-ylsulfonyl)indolin-1-yl)-4-oxobutanoic acid]	9 ± 5.9
COc1cccc(N2CCN(S(=O)(=O)c3ccc4c(c3)CCN4C(=O)CCC(=O)O)CC2)c1 [XW2-038F, 4-(5-(4-(3-Methoxyphenyl)piperazin-1-ylsulfonyl)indolin-1-yl)-4-oxobutanoic acid]	4.7 ± 4.4
O=C(O)CCC(=O)N1CCc2cc(S(=O)(=O)N3CCN(c4cccc(Cl)c4Cl)CC3)ccc21 [XW2-038G, 4-(5-(4-(2,3-Dichlorophenyl)piperazin-1-ylsulfonyl)indolin-1-yl)-4-oxobutanoic acid]	144 ± 89.5
O=C(O)CCC(=O)N1CCc2cc(S(=O)(=O)N3CCN(c4cccc(Cl)c4)CC3)ccc21 [XW2-038H, 4-(5-(4-(3-Chlorophenyl)piperazin-1-ylsulfonyl)indolin-1-yl)-4-oxobutanoic acid]	0.7 ± 0.3
O=C(O)CCC(=O)N1CCc2cc(S(=O)(=O)N3CCN(c4cc(C(F)(F)F)cc(C(F)(F)F)c4)CC3)ccc21 [XW2-119, 4-(5-(4-(3,5-Bis(trifluoromethyl)phenyl)piperazin-1-ylsulfonyl)indolin-1-yl)-4-oxobutanoic acid]	9.1 ± 1.6
O=C(O)CCC(=O)N1CCc2cc(S(=O)(=O)N3CCN(c4cccc(F)c4)CC3)ccc21 [XW2-124A, 4-(5-(4-(3-Fluorophenyl)piperazin-1-ylsulfonyl)indolin-1-yl)-4-oxobutanoic acid]	13.2 ± 3.6
